From US9273058B2 (BRISTOL-MYERS SQUIBB COMPANY, priority 2013, dated 2016)

How the values were obtained:
CK1δ = CK1δ (Homo sapiens, UniProt P48730); test: CK1δ kinase assay (Caliper LabChip electrophoretic separation of fluoresceinated peptide substrate and product); format: biochemical; conditions: 200 pM CK1δ, 50 μM ATP, 1.5 μM peptide, 22 hours at room temperature; read-out: CK1δ IC50 range
In short: (§1)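 Incubated for twenty-two hours at ambient temperature, then quenched with EDTA and analyzed by electrophoretic separation of unphosphorylated and phosphorylated peptide.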

CK1ε = CK1ε (Homo sapiens, UniProt P49674); test: CK1ε kinase assay (Caliper LabChip electrophoretic separation of fluoresceinated peptide substrate and product); format: biochemical; conditions: 200 pM CK1ε, 50 μM ATP, 1.5 μM peptide, 22 hours at room temperature; read-out: CK1ε IC50 range
CK1ε, sequence (P49674 whole entry): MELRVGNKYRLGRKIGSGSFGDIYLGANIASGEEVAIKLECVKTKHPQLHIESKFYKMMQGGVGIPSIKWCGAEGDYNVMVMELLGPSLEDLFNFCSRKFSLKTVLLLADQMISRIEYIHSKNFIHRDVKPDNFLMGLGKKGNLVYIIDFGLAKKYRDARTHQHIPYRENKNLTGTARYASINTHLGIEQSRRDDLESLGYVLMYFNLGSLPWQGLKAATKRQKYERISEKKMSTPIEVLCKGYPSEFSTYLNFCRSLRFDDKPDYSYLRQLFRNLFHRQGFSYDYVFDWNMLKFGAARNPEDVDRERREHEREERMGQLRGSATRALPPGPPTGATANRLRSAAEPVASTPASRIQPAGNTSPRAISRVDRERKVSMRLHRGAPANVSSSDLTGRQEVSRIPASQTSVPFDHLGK
In short: as §1

CK1δ, sequence (P48730 whole entry): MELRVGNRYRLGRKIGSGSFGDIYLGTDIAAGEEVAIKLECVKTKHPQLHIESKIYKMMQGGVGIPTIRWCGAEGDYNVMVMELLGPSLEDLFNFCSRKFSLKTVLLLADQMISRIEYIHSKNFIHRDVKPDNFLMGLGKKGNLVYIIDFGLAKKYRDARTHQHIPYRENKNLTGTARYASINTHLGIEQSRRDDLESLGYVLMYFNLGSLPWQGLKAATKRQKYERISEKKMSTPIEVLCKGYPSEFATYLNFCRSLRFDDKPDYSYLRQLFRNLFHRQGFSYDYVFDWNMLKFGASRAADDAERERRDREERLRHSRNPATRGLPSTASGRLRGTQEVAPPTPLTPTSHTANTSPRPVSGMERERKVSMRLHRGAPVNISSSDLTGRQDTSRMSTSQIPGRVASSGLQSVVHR

IC50 (CK1δ)	IC50 (CK1ε)	Compound
10 to 100 nM	100 to 2000 nM	COCCNC(=O)C(C)(C)NC(=O)N1CCn2nc(-c3ccc(F)c(Cl)c3)c(C(N)=O)c2C1 [Compound 217, 2-(3-Chloro-4-fluorophenyl)-N^5-(1-((2-methoxyethyl)amino)-2-methyl-1-oxopropan-2-yl)-6,7-dihydropyrazolo[1,5-a] pyrazine-3,5(4H)-dicarboxamide]
0.01 to 10 nM	10 to 100 nM	CN(C)C(=O)C(C)(C)NC(=O)N1CCn2nc(-c3ccc(F)c(Cl)c3)c(C(N)=O)c2C1 [Compound 218, 2-(3-Chloro-4-fluorophenyl)-N^5-(1-(dimethylamino)-2-methyl-1-oxopropan-2-yl)-6,7-dihydropyrazolo[1,5-a] pyrazine-3,5(4H)-dicarboxamide]
10 to 100 nM	10 to 100 nM	CC(C)(NC(=O)N1CCn2nc(-c3ccc(F)c(Cl)c3)c(C(N)=O)c2C1)C(N)=O [Compound 219, N^5-(1-Amino-2-methyl-1-oxopropan-2-yl)-2-(3-chloro-4-fluorophenyl)-6,7-dihydropyrazolo[1,5-a] pyrazine-3,5(4H)-dicarboxamide]
0.01 to 10 nM	0.01 to 10 nM	N#CCC1(NC(=O)N2CCn3nc(-c4ccc(F)c(Cl)c4)c(C(N)=O)c3C2)CCC1 [Compound 220, 2-(3-Chloro-4-fluorophenyl)-N^5-(1-(cyanomethyl)cyclobutyl)-6,7-dihydro pyrazolo[1,5-a]pyrazine-3,5(4H)-dicarboxamide]
0.01 to 10 nM	0.01 to 10 nM	N#CCC1(NC(=O)N2CCn3nc(-c4cccc(Cl)c4)c(C(N)=O)c3C2)CCC1 [Compound 221, 2-(3-Chlorophenyl)-N^5-(1-(cyanomethyl)cyclobutyl)-6,7-dihydropyrazolo[1,5-a] pyrazine-3,5(4H)-dicarboxamide]
0.01 to 10 nM	0.01 to 10 nM	N#CCC1(NC(=O)N2CCn3nc(-c4ccc(Cl)c(Cl)c4)c(C(N)=O)c3C2)CCC1 [Compound 222, N^5-(1-(Cyanomethyl)cyclobutyl)-2-(3,4-dichlorophenyl)-6,7-dihydropyrazolo[1,5-a] pyrazine-3,5(4H)-dicarboxamide]
0.01 to 10 nM	0.01 to 10 nM	NC(=O)c1c(-c2ccc(Cl)c(Cl)c2)nn2c1CN(C(=O)NC1(COC(F)F)CCC1)CC2 [Compound 224, 2-(3,4-Dichlorophenyl)-N^5-(1-((difluoromethoxy)methyl)cyclobutyl)-6,7-dihydropyrazolo[1,5-a] pyrazine-3,5(4H)-dicarboxamide]
0.01 to 10 nM	0.01 to 10 nM	NC(=O)c1c(-c2cccc(Cl)c2)nn2c1CN(C(=O)NC1(COC(F)F)CCC1)CC2 [Compound 225, 2-(3-Chlorophenyl)-N^5-(1-((difluoromethoxy)methyl)cyclobutyl)-6,7-dihydropyrazolo[1,5-a] pyrazine-3,5(4H)-dicarboxamide]
0.01 to 10 nM	0.01 to 10 nM	CC(C)(NC(=O)N1CCn2nc(-c3ccc(F)c(Cl)c3)c(C(N)=O)c2C1)C1CC(F)(F)C1 [Compound 226, 2-(3-Chloro-4-fluorophenyl)-N^5-(2-(3,3-difluorocyclobutyl)propan-2-yl)-6,7-dihydropyrazolo[1,5-a]pyrazine-3,5(4H)-dicarboxamide]
0.01 to 10 nM	0.01 to 10 nM	CC(C)(NC(=O)N1CCn2nc(-c3cccc(Cl)c3)c(C(N)=O)c2C1)C1CC(F)(F)C1 [Compound 227, 2-(3-Chlorophenyl)-N^5-(2-(3,3-difluorocyclobutyl)propan-2-yl)-6,7-dihydropyrazolo[1,5-a] pyrazine-3,5(4H)-dicarboxamide]
0.01 to 10 nM	0.01 to 10 nM	CC1(CNC(=O)N2CCn3nc(-c4ccc(F)c(Cl)c4)c(C(N)=O)c3C2)CC(F)(F)C1 [Compound 229, 2-(3-Chloro-4-fluorophenyl)-N^5-((3,3-difluoro-1-methylcyclobutyl)methyl)-6,7-dihydropyrazolo[1,5-a]pyrazine-3,5(4H)-dicarboxamide]
0.01 to 10 nM	0.01 to 10 nM	CC1(CNC(=O)N2CCn3nc(-c4cccc(Cl)c4)c(C(N)=O)c3C2)CC(F)(F)C1 [Compound 230, 2-(3-Chlorophenyl)-N^5-((3,3-difluoro-1-methylcyclobutyl)methyl)-6,7-dihydropyrazolo[1,5-a] pyrazine-3,5(4H)-dicarboxamide]
0.01 to 10 nM	0.01 to 10 nM	CC(C)(NC(=O)N1CCn2nc(-c3ccc(F)c(Cl)c3)c(C(N)=O)c2C1)C1CCC(F)(F)CC1 [Compound 232, 2-(3-Chloro-4-fluorophenyl)-N^5-(2-(4,4-difluorocyclohexyl)propan-2-yl)-6,7-dihydropyrazolo[1,5-a]pyrazine-3,5(4H)-dicarboxamide]
0.01 to 10 nM	0.01 to 10 nM	CC(C)(NC(=O)N1CCn2nc(-c3cccc(Cl)c3)c(C(N)=O)c2C1)C1CCC(F)(F)CC1 [Compound 233, 2-(3-Chlorophenyl)-N^5-(2-(4,4-difluorocyclohexyl)propan-2-yl)-6,7-dihydropyrazolo[1,5-a] pyrazine-3,5(4H)-dicarboxamide]
0.01 to 10 nM	0.01 to 10 nM	CC(C)(NC(=O)N1CCn2nc(-c3ccc(Cl)c(Cl)c3)c(C(N)=O)c2C1)C1CCC(F)(F)CC1 [Compound 234, 2-(3,4-Dichlorophenyl)-N^5-(2-(4,4-difluorocyclohexyl)propan-2-yl)-6,7-dihydropyrazolo[1,5-a] pyrazine-3,5(4H)-dicarboxamide]
0.01 to 10 nM	0.01 to 10 nM	NC(=O)c1c(-c2ccc(F)c(Cl)c2)nn2c1CN(C(=O)NC1(C(F)F)CCC1)CC2 [Compound 235, 2-(3-Chloro-4-fluorophenyl)-N^5-(1-(difluoromethyl)cyclobutyl)-6,7-dihydro pyrazolo[1,5-a]pyrazine-3,5(4H)-dicarboxamide]
0.01 to 10 nM	0.01 to 10 nM	NC(=O)c1c(-c2cccc(Cl)c2)nn2c1CN(C(=O)NC1(C(F)F)CCC1)CC2 [Compound 236, 2-(3-Chlorophenyl)-N^5-(1-(difluoromethyl)cyclobutyl)-6,7-dihydropyrazolo[1,5-a] pyrazine-3,5(4H)-dicarboxamide]
0.01 to 10 nM	0.01 to 10 nM	NC(=O)c1c(-c2ccc(Cl)c(Cl)c2)nn2c1CN(C(=O)NC1(C(F)F)CCC1)CC2 [Compound 237, 2-(3,4-Dichlorophenyl)-N^5-(1-(difluoromethyl)cyclobutyl)-6,7-dihydropyrazolo[1,5-a] pyrazine-3,5(4H)-dicarboxamide]
0.01 to 10 nM	0.01 to 10 nM	NC(=O)c1c(-c2cccc(Cl)c2)nn2c1CN(C(=O)N[C@@H]1CC[C@@H]1C(F)F)CC2 [Compound 239, 2-(3-Chlorophenyl)-N^5-((1R,2S)-2-(difluoromethyl)cyclobutyl)-6,7-dihydropyrazolo[1,5-a] pyrazine-3,5(4H)-dicarboxamide]
0.01 to 10 nM	0.01 to 10 nM	NC(=O)c1c(-c2ccc(F)c(Cl)c2)nn2c1CN(C(=O)N[C@@H]1CC[C@H]1COC(F)F)CC2 [Compound 241, 2-(3-Chloro-4-fluorophenyl)-N^5-((1R,2R)-2-((difluoromethoxy)methyl)cyclobutyl)-6,7-dihydropyrazolo[1,5-a]pyrazine-3,5(4H)-dicarboxamide]
0.01 to 10 nM	0.01 to 10 nM	NC(=O)c1c(-c2ccc(Cl)c(Cl)c2)nn2c1CN(C(=O)N[C@@H]1CC[C@H]1COC(F)F)CC2 [Compound 243, 2-(3,4-Dichlorophenyl)-N^5-((1R,2R)-2-((difluoromethoxy)methyl)cyclobutyl)-6,7-dihydropyrazolo[1,5-a] pyrazine-3,5(4H)-dicarboxamide]
0.01 to 10 nM	0.01 to 10 nM	NC(=O)c1c(-c2ccc(Cl)c(Cl)c2)nn2c1CN(C(=O)NC1CC(C(F)F)C1)CC2 (centres unmarked) [Compound 254, 2-(3,4-Dichlorophenyl)-N^5-(3-(difluoromethyl)cyclobutyl)-6,7-dihydropyrazolo[1,5-a]pyrazine-3,5(4H)-dicarboxamide]
0.01 to 10 nM	0.01 to 10 nM	NC(=O)c1c(-c2ccc(Cl)c(Cl)c2)nn2c1CN(C(=O)NC1CC(C(F)F)C1)CC2 (centres unmarked) [Compound 255, 2-(3,4-Dichlorophenyl)-N^5-(3-(difluoromethyl)cyclobutyl)-6,7-dihydropyrazolo[1,5-a]pyrazine-3,5(4H)-dicarboxamide]
0.01 to 10 nM	0.01 to 10 nM	CC1(NC(=O)N2CCn3nc(-c4ccc(F)c(Cl)c4)c(C(N)=O)c3C2)CC(O)C1 (centres unmarked) [Compound 260, 2-(3-Chloro-4-fluorophenyl)-N^5-(3-hydroxy-1-methylcyclobutyl)-6,7-dihydropyrazolo[1,5-a]pyrazine-3,5(4H)-dicarboxamide]
0.01 to 10 nM	0.01 to 10 nM	NC(=O)c1c(-c2ccc(F)c(Cl)c2)nn2c1CN(C(=O)N[C@H]1C[C@@H](OC(F)(F)F)C1)CC2 [Compound 261, 2-(3-Chloro-4-fluorophenyl)-N^5-((1r,3r)-3-(trifluoromethoxy)cyclobutyl)-6,7-dihydropyrazolo[1,5-a]pyrazine-3,5(4H)-dicarboxamide]
0.01 to 10 nM	0.01 to 10 nM	NC(=O)c1c(-c2cccc(Cl)c2)nn2c1CN(C(=O)N[C@H]1C[C@@H](OC(F)(F)F)C1)CC2 [Compound 262, 2-(3-Chlorophenyl)-N^5-((1r,3r)-3-(trifluoromethoxy)cyclobutyl)-6,7-dihydropyrazolo[1,5-a] pyrazine-3,5(4H)-dicarboxamide]
0.01 to 10 nM	0.01 to 10 nM	NC(=O)c1c(-c2ccc(Cl)c(Cl)c2)nn2c1CN(C(=O)N[C@H]1C[C@@H](OC(F)(F)F)C1)CC2 [Compound 263, 2-(3,4-Dichlorophenyl)-N^5-((1r,3r)-3-(trifluoromethoxy)cyclobutyl)-6,7-dihydropyrazolo[1,5-a] pyrazine-3,5(4H)-dicarboxamide]
0.01 to 10 nM	0.01 to 10 nM	NC(=O)c1c(-c2ccc(F)c(Cl)c2)nn2c1CN(C(=O)N[C@H]1C[C@H](OC(F)(F)F)C1)CC2 [Compound 264, 2-(3-Chloro-4-fluorophenyl)-N^5-((1r,3r)-3-(trifluoromethoxy)cyclobutyl)-6,7-dihydropyrazolo[1,5-a]pyrazine-3,5(4H)-dicarboxamide]
